# Read-outs that look alike come from different tables or passages of the source.
# Columns and labels:
# bovine coagulated blood = experiment: Decoloring screening: heme eluted from bovine coagulated blood (OD420-OD700); conditions: decolorization; for 700 nm calibrated 420 nm Average: OD420 calibrated by OD700; for integrated value 500-700 nm Average: integrated absorbance 500-700 nm
# Description: A high-throughput screening system for evaluating the decoloring ability of various compounds was constructed. The screening system involved adding an aqueous solution of each compound to bovine coagulated blood and then measuring the absorbance of heme collected in the supernatant.
# Specifically, to bovine blood, an equal amount of 8% PFA solution was added, and reacted at 4° C. overnight. The mixed liquid was centrifuged at 1500×g for 5 minutes, and the supernatant containing PFA was discarded. Then, the same amount of PBS as the original volume of blood was added to prepare a coagulated blood sample. To 150 μL of 10 wt % aqueous solution of each compound, 50 μL of the coagulated blood sample was added, and reacted at 37° C. overnight. The reaction solution was centrifuged at 1500×g for 5 minutes, and then 100 μL of the supernatant was added to a plate so as to be subjected to absorbance measurement. A sample which is suspended in water instead of being dissolved in the water has a weak decoloring effect, but none the less has a high absorbance value. […]
# Serius = conditions: relative fluorescence
# [1] = for 400 nm: OD at 400 nm of the chemical; for OD400: Table 1
Compound,700 nm calibrated 420 nm Average (bovine coagulated blood),integrated value 500-700 nm Average (bovine coagulated blood),Fluorescence quench Average (Serius),400 nm [1],pH ([…]),OD400 [1],pH (Table 1)
"COc1ccc(CO)cc1OC [#1422, Veratryl alcohol]",1.46,1.28,0.89,0.05,6.1,–,–
"NC(=O)c1cccnc1 [#0855, nicotinamide]",2.63,2.45,0.75,0.052,10.4,–,–
CCC(N)CCN (stereo not shown) [#0678],1.71,1.15,0.60,0.049,13.6,–,–
NCC(O)CN [#1062],1.13,0.80,0.67,0.054,12.8,–,–
NCCCCO [#0006],1.22,0.82,0.64,0.06,12.3,–,–
CCCCCCCCCCCC[N+](C)(C)CCCS(=O)(=O)[O-] [#0694],2.24,2.53,1.09,0.055,8.4,–,–
OCCCCCBr [#1367],1.48,0.06,−0.01,0.055,2.9,–,–
"NCC1CCOCC1 [#0467, 4-Aminomethyl-tetrahydropyran]",1.52,1.13,0.65,0.049,12.9,–,–
c1cnccn1 [#1086],1.41,1.39,0.67,0.051,8.6,–,–
"C[N+](C)(C)Cc1ccccc1.[OH-] [#0387, Benzyltrimethyl- ammonium Hydroxide]",3.14,2.56,0.00,0.054,13.8,0.054,13.8
"CC(CN)CCCN (stereo not shown) [#1267, 2-Methyl-1,5-diaminopentane]",1.48,1.09,0.51,0.08,12.9,0.08,12.9
NCCCCCO [#0003],1.83,1.21,0.63,0.052,12.5,–,–
"NCCCNCCNCCCN [#0277, N,N′-Bis(3-aminopropyl) ethylenediamine]",1.20,0.83,0.71,0.053,13.1,–,–
"C[C@H](CCC(=O)[O-])[C@H]1CC[C@H]2[C@@H]3CC[C@@H]4C[C@H](O)CC[C@]4(C)[C@H]3C[C@H](O)[C@]12C.[Na+] [#1507, Sodium deoxycholate]",1.27,1.03,1.03,0.054,7.9,0.054,7.9
"OCCN(CCO)CCN(CCO)CCO [#1537, N,N,N′,N′-Tetrakis(2-hydroxyethyl) ethylenediamine]",1.29,1.63,0.66,0.048,11.7,–,–
"NCCCOCCCN [#0394, Bis(3-aminopropyl) ether]",3.27,1.85,0.54,0.067,13.2,–,–
"NCCCCCCO [#0007, 6-Amino-1-hexanol]",2.66,1.76,0.22,0.093,11.9,–,–
"CCCCCCCCCCCCOS(=O)(=O)[O-].[Na+] [#1035, Sodium dodecyl sulfate]",1.28,1.32,1.15,0.048,6.3,0.048,6.3
Dodecyldimethyl(3- sulfopropyl)ammonium [#0661],2.10,1.70,1.13,0.051,–,0.051,–
"CCN(CC)CCN [#0779, N,N-Diethyl-ethylenediamine]",1.39,0.81,0.70,0.051,13.6,–,–
"CC(O)CN(CCN(CC(C)O)CC(C)O)CCN(CC(C)O)CC(C)O (stereo not shown) [#1105, N,N,N′,N″,N″-Pentakis(2-hydroxypropyl) diethylene-triamine]",1.20,1.05,0.74,0.057,13.2,–,–
NCCCCN [#0783],2.21,1.42,0.60,0.05,14.0,–,–

# Reference: patent US20220381657A1, “METHOD FOR PREPARING BIOLOGICAL MATERIAL HAVING EXCELLENT LIGHT-TRANSMITTING PROPERTY” (RIKEN, priority 2016, published 2022)
